21 compounds from patent publication US9540343B2 (Gilead Sciences, Inc., priority 2011, dated 2017) can be followed below.

Data set [1] concerns HIV-IIIb. In words: Test A: Antiviral assay in MT4 cells. To be noted: MT-4 cells infected with HIV-IIIb, 5 days, CellTiter-Glo; for inhibition at 2 µM: Human immunodeficiency virus 1, IIIB, MT4, 120 h, read-out: % inhibition at 2 μM, percent inhibition of virus-induced cell killing, from dose response curve at 2 uM drug. It counts as cell-based, HIV-1. In general terms: ATP-based viability assays read luminescence as a measure of living cells.

Data set [2] in a line: in vitro. The following applies: human, uninfected MT-4 cells, CC50 (nM), same protocol as Test A, CellTiter-Glo. On the procedure: For the antiviral assay, 40 μL of 1× test concentration of 3-fold serially diluted compound in culture medium with 10% FBS was added to each well of a 384-well plate (10 concentrations) in quadruplicate. MT-4 cells were next mixed with HIV-IIIb at an m.o.i of 0.003 for 1 hour, after which time 35 μL of virus/cell mixture (2000 cells) was immediately added to each well containing 40 μL of diluted compound. The plates were then incubated at 37° C. for 5 days. After 5 days of incubation, 25 μl of 2× concentrated CellTiter-Glo™ Reagent (catalog #G7571, Promega Biosciences, Inc., Madison, Wis.) was added to each well containing MT-4 cells. Cell lysis was carried out by incubating at room temperature for 10 min and then chemiluminescence was read.
Test B: Cytotoxicity Assay
Compound cytotoxicity and the corresponding CC50 values was determined using the same protocol as described in the antiviral assay (Test A) except that uninfected cells were used.

One may read the inhibition as the drop in the measured response relative to a control, in per cent. For orientation: CC50 means the concentration that lowers cell viability or growth by half. The low end stands for harm at low concentration, the high end for better tolerance by the cells. Consider `NC(=O)c1cc(-c2cccnc2[C@H](Cc2cc(F)cc(F)c2)NC(=O)Cn2cc(CNC3CC3)c(C(F)(F)F)n2)ccc1F` [Example 335, (S)-5-(2-(1-(2-(4-((cyclopropylamino)methyl)-3-(trifluoromethyl)-1H-pyrazol-1-yl)acetamido)-2-(3,5-difluorophenyl)ethyl)pyridin-3-yl)-2-fluorobenzamide], for which the inhibition at 2 µM in data set [1] is 3%. For the same compound, half-maximal cytotoxicity in data set [2] (CC50 at 5 days) was put at 51100 nM.

As to `NC(=O)c1cc(-c2cccnc2[C@H](Cc2cc(F)cc(F)c2)NC(=O)Cn2cc(C(F)(F)F)nc2C2CCCC2)ccc1F` [Example 107E, (S)-5-(2-(1-(2-(2-cyclopentyl-4-(trifluoromethyl)-1H-imidazol-1-yl)acetamido)-2-(3,5-difluorophenyl)ethyl)pyridin-3-yl)-2-fluorobenzamide], in data set [1], the inhibition at 2 µM was determined as 30%. The same compound had a half-maximal cytotoxic concentration (CC50) at 5 days in data set [2] of 42800 nM.

With `Cc1ccccc1-c1cccnc1C(Cc1cc(F)cc(F)c1)NC(=O)Cc1c[nH]c2ccc(O)cc12` (stereo not shown) [Example 3, N-(2-(3,5-difluorophenyl)-1-(3-o-tolylpyridin-2-yl)ethyl)-2-(5-hydroxy-1H-indol-3-yl)acetamide], in data set [1], the inhibition at 2 µM is 40%. This compound also registered a 50% cytotoxic concentration (CC50) at 5 days in data set [2] of 21900 nM.

For `NC(=O)c1cc(-c2cccnc2[C@H](Cc2cc(F)cc(F)c2)NC(=O)Cn2cc(C(N)=O)c(C(F)(F)F)n2)ccc1F` [Example 312, (S)-1-(2-(1-(3-(3-carbamoyl-4-fluorophenyl)pyridin-2-yl)-2-(3,5-difluorophenyl)ethylamino)-2-oxoethyl)-3-(trifluoromethyl)-1H-pyrazole-4-carboxamide], in data set [1], the inhibition at 2 µM was 2%. The compound also had a CC50 at 5 days in data set [2] of over 53200 nM.

Regarding `NC(=O)c1cc(-c2cccnc2[C@H](Cc2cc(F)cc(F)c2)NC(=O)Cn2cc(C(F)(F)F)nc2COCc2ccccc2)ccc1F` [Example 91B, (S)-5-(2-(1-(2-(2-(benzyloxymethyl)-4-(trifluoromethyl)-1H-imidazol-1-yl)acetamido)-2-(3,5-difluorophenyl)ethyl)pyridin-3-yl)-2-fluorobenzamide], the inhibition at 2 µM in data set [1] was found to be 17%. In data set [2], this compound displayed a CC50 at 5 days of 22000 nM.

Turning to `NC(=O)c1cc(-c2cccnc2[C@H](Cc2cc(F)cc(F)c2)NC(=O)Cn2nc(C(F)(F)F)c3c2CCC(O)C3)ccc1F` (stereo partly drawn) [Example 448, 5-(2-((1S)-2-(3,5-difluorophenyl)-1-(2-(5-hydroxy-3-(trifluoromethyl)-4,5,6,7-tetrahydro-1H-indazol-1-yl)acetamido)ethyl)pyridin-3-yl)-2-fluorobenzamide], in data set [1], the inhibition at 2 µM was found to be 103%. The CC50 at 5 days in data set [2] is over 53200 nM.

`NC(=O)c1cc(-c2cccnc2[C@H](Cc2cccc(F)c2)NC(=O)Cn2nc(C(F)(F)F)c3ccccc32)ccc1F` [Example 213C, (S)-2-fluoro-5-(2-(2-(3-fluorophenyl)-1-(2-(3-(trifluoromethyl)-1H-indazol-1-yl)acetamido)ethyl)pyridin-3-yl)benzamide]: in data set [1], the inhibition at 2 µM stood at 14%. This compound came in with a CC50 at 5 days in data set [2] of 15900 nM.

Take `COc1ccc2c(c1)NC(=O)C2CC(=O)N[C@@H](Cc1cc(F)cc(F)c1)c1ncccc1-c1ccc(F)c(C(N)=O)c1` (stereo partly drawn) [Example 256, 5-(2-((1S)-2-(3,5-difluorophenyl)-1-(2-(6-methoxy-2-oxoindolin-3-yl)acetamido)ethyl)pyridin-3-yl)-2-fluorobenzamide]: the inhibition at 2 µM in data set [1] was 15%. The same compound had a half-maximal cytotoxic concentration (CC50) at 5 days in data set [2] of over 53200 nM.

As for `NCc1ccc2c(CC(=O)N[C@@H](Cc3cc(F)cc(F)c3)c3ncccc3-c3ccc(Cl)cc3)c[nH]c2c1` [Example 549, (S)-2-(6-(aminomethyl)-1H-indol-3-yl)-N-(1-(3-(4-chlorophenyl)pyridin-2-yl)-2-(3,5-difluorophenyl)ethyl)acetamide], the inhibition at 2 µM in data set [1] amounted to 38%. For the same compound, the half-maximal cytotoxic concentration (CC50) at 5 days in data set [2] was 10200 nM.

As to `NCc1ccc2[nH]cc(CC(=O)N[C@@H](Cc3cc(F)cc(F)c3)c3ncccc3-c3cccc(C(N)=O)c3)c2c1` [Example 556, (S)-3-(2-(1-(2-(5-(aminomethyl)-1H-indol-3-yl)acetamido)-2-(3,5-difluorophenyl)ethyl)pyridin-3-yl)benzamide], the inhibition at 2 µM in data set [1] was found to be 83%. Further, in data set [2], it took 47800 nM to reach half-maximal cytotoxicity (CC50 at 5 days).

Regarding `O=C(Cn1nc(C(F)(F)F)c2c1CCCC2)N[C@@H](Cc1cc(F)cc(F)c1)c1ncccc1-c1cccc(C(=O)NC2CC2)c1` [Example 62, (S)—N-cyclopropyl-3-(2-(2-(3,5-difluorophenyl)-1-(2-(3-(trifluoromethyl)-4,5,6,7-tetrahydro-1H-indazol-1-yl)acetamido)ethyl)pyridin-3-yl)benzamide], the inhibition at 2 µM in data set [1] amounted to 80%. The compound also yielded a CC50 at 5 days in data set [2] of 9980 nM.

For the compound `CN(C)S(=O)(=O)c1ccc(-c2cccnc2[C@H](Cc2cc(F)cc(F)c2)NC(=O)Cn2nc(C(F)F)c3c2C(F)(F)C2CC32)cc1` (stereo partly drawn) [Example 119, (S)—N-(1-(3-(4-(N,N-dimethylsulfamoyl)phenyl)-pyridin-2-yl)-2-(3,5-difluorophenyl)ethyl)-2-(3-(difluoromethyl)-5,6-dihydro-4,5-(methano)-6,6-difluoro-cyclopenta[c]pyrazol-1(4H)-yl)acetamide], the inhibition at 2 µM in data set [1] worked out at 48%. In data set [2], this compound registered a CC50 at 5 days of over 53200 nM.

For the compound `NC(=O)c1cc(-c2cccnc2[C@H](Cc2cc(F)cc(F)c2)NC(=O)Cn2ncc3c(Cl)cc(Cl)cc32)ccc1F` [Example 550, (S)-5-(2-(1-(2-(4,6-dichloro-1H-indazol-1-yl)acetamido)-2-(3,5-difluorophenyl)ethyl)pyridin-3-yl)-2-fluorobenzamide], the inhibition at 2 µM in data set [1] was 1%. This compound also showed a CC50 at 5 days in data set [2] of 17000 nM.

In the case of `O=C(Cn1nc(C(F)F)c2c1C(F)(F)CCC2(F)F)N[C@@H](Cc1cc(F)cc(F)c1)c1ncccc1-c1ccc2c(c1)CNC2=O` [Example 508D, (S)-2-(3-(difluoromethyl)-4,4,7,7-tetrafluoro-4,5,6,7-tetrahydro-1H-indazol-1-yl)-N-(2-(3,5-difluorophenyl)-1-(3-(1-oxoisoindolin-5-yl)pyridin-2-yl)ethyl)acetamide], in data set [1], the inhibition at 2 µM was 96%. Half-maximal cytotoxicity in data set [2] (CC50 at 5 days) was put at 5130 nM.

With `NC(=O)c1cc(-c2cccnc2[C@H](Cc2cc(F)cc(F)c2)NC(=O)Cc2c[nH]c3cc(F)c(F)cc23)ccc1F` [Example 533E, (S)-5-(2-(1-(2-(5,6-difluoro-1H-indol-3-yl)acetamido)-2-(3,5-difluorophenyl)ethyl)pyridin-3-yl)-2-fluorobenzamide], the inhibition at 2 µM in data set [1] turned out to be 142%. Also, the CC50 at 5 days in data set [2] was 19300 nM.

For `COCCOc1ccc(-c2cccnc2[C@H](Cc2cc(F)cc(F)c2)NC(=O)Cn2nc(C(F)F)c3c2C(F)(F)C2CC32)cc1` (stereo partly drawn) [Example 217, 2-(3-(difluoromethyl)-5,5-difluoro-3b,4,4a,5-tetrahydro-1H-cyclopropa[3,4]cyclopenta[1,2-c]pyrazol-1-yl)-N—((S)-2-(3,5-difluorophenyl)-1-(3-(4-(2-methoxyethoxy)phenyl)pyridin-2-yl)ethyl)acetamide], the inhibition at 2 µM in data set [1] was 92%. In data set [2], this compound gave a CC50 at 5 days of 29600 nM.

Consider `NC(=O)c1cc(-c2cccnc2[C@H](Cc2cc(F)cc(F)c2)NC(=O)Cn2nc(C(F)(F)F)c3c2CSC3)ccc1F` [Example 189D, (S)-5-(2-(2-(3,5-difluorophenyl)-1-(2-(3-(trifluoromethyl)-4,6-dihydro-1H-thieno[3,4-c]pyrazol-1-yl)acetamido)ethyl)pyridin-3-yl)-2-fluorobenzamide], for which the inhibition at 2 µM in data set [1] worked out at 48%. In data set [2], this compound returned a CC50 at 5 days of 23300 nM.

`CC(C)c1cc(C(C)C)n(CC(=O)N[C@@H](Cc2cc(F)cc(F)c2)c2ncccc2-c2ccc(F)c(C(N)=O)c2)n1` [Example 538, (S)-5-(2-(2-(3,5-difluorophenyl)-1-(2-(3,5-diisopropyl-1H-pyrazol-1-yl)acetamido)ethyl)pyridin-3-yl)-2-fluorobenzamide]: the inhibition at 2 µM in data set [1] came out at 14%. The compound also gave a CC50 at 5 days in data set [2] of 23300 nM.

For `O=C(Cc1c[nH]c2ccc(F)cc12)N[C@@H](Cc1cc(F)cc(F)c1)c1ncccc1-c1ccccc1Cl` [Example 395, (S)—N-(1-(3-(2-chlorophenyl)pyridin-2-yl)-2-(3,5-difluorophenyl)ethyl)-2-(5-fluoro-1H-indol-3-yl)acetamide], in data set [1], the inhibition at 2 µM amounted to 41%. In addition, in data set [2], the CC50 at 5 days worked out at 11600 nM.

One may read the % inhibition as the drop in the measured response relative to a control, in per cent. A lower % inhibition goes with little suppression. For the compound `NC(=O)c1cc(-c2cccnc2[C@H](Cc2cc(F)cc(F)c2)NC(=O)Cn2nc(C(F)(F)F)c3c2[C@@H]2C[C@@H]2C3)ccc1F` [Example 187, 5-(2-((S)-2-(3,5-difluorophenyl)-1-(2-((4aR,5aR)-3-(trifluoromethyl)-4,4-a,5,5a-tetrahydro-1H-cyclopropa[4,5]cyclopenta[1,2-c]pyrazol-1-yl)acetamido)ethyl)pyridin-3-yl)-2-fluorobenzamide], the “% inhibition at 2 μM” value in data set [1] (percent inhibition of virus-induced cell killing, from dose response curve at 2 uM drug) stood at 31%.

As to `NC(=O)c1cc(-c2cccnc2[C@H](Cc2cc(F)cc(F)c2)NC(=O)Cn2nc(C(F)(F)F)c3c2C2CC2C3(F)F)ccc1F` (stereo partly drawn) [Example 462J, 5-(2-((1S)-1-(2-(4,4-difluoro-3-(trifluoromethyl)-4,4-a,5,5a-tetrahydro-1H-cyclopropa[4,5]cyclopenta[1,2-c]pyrazol-1-yl)acetamido)-2-(3,5-difluorophenyl)ethyl)pyridin-3-yl)-2-fluorobenzamide], the inhibition at 2 µM in data set [1] came out at 2%.
